The term IC50 denotes the point on the concentration scale where inhibition reaches its midpoint.

This note sets out measurements from US11603368B2, “Fused thiophene derivatives and their uses” (ENYO PHARMA, priority 2018, dated 2023).

In this test the test system is H1N1 (influenza A/New Caledonia/20/99). The experiment in a line: Antiviral effect on A549 cells infected with H1N1. Particulars: Human A549 cells, MOI of 0.1, 48 h post-infection, MUNANA hydrolysis readout. Format: cell-based, H1N1 A/New Caledonia/20/99 virus. On the procedure:
The antiviral effect of the compounds of the invention has been tested on A549 cell lines infected with H1N1 (influenza A/New Caledonia/20/99).
Human A549 cells (80,000 cells/well in a 96 well plate) were treated with a range of concentration of test molecules and immediately infected by H1N1 A/New Caledonia/20/99 virus (clinical isolate) at MOI of 0.1 in DMEM/1% Penicillin/streptomycin supplemented with 0.25 μg/ml TPCK trypsin (Sigma) and incubated at 37° C. in 5% CO2. 48 h post-infection, supernatants (25 μl) were collected and transferred into a 96-well black flat-bottom plate, mixed with 25 μl PBS with Ca++/Mg++(Thermo Fisher) and 50 μl of 2′-(4-Methylumbelliferyl)-α-D-N-acetylneuraminic acid sodium salt hydrate stock-solution (20 μM, MUNANA, Sigma). Plates were incubated 1 h at 37° C. and reaction is stopped by adding 100 μl of Stop Solution (glycine 0.1 M pH10.7/25% ethanol). The amount of fluorescent product released by MUNANA hydrolysis (4-MU) was measured in a Tecan spectrophotometer with excitation and emission wavelengths of 365 and 450 nm respectively.

Where [1] appears, read: Influenza A virus, H1N1, A549, 48 h.

`O=C(Nc1sc2c(c1C(=O)O)CCC2)c1ccccc1` [#210] yielded an IC50 under setting [1] of 817 nM.

Molecule `O=C(Nc1sc2c(c1C(=O)O)CCC2)c1ccc(NCC2CCOCC2)cc1` [#211] gave a concentration for half-maximal inhibition (IC50) under setting [1] of 260 nM. For `COC1CN(c2ccc(C(=O)Nc3sc4c(c3C(=O)O)CCCC4)cc2)C1` [#215], 110 nM corresponded to half-maximal inhibition under setting [1] (IC50). On the same count and under the same terms, the result for `O=C(Nc1sc2c(c1C(=O)O)CCCC2)c1ccc(NCC2CCOCC2)cc1` [#216] reads 60 nM; that for `COC1CN(c2ccc(C(=O)Nc3sc4c(c3C(=O)O)CC(C)(C)OC4(C)C)cc2)C1` [#217], 510 nM. The molecule `COCCNc1ccc(C(=O)Nc2sc3c(c2C(=O)O)CCC3)cc1` [#231] yielded a half-inhibitory concentration (IC50) under setting [1] of 890 nM. On the same count and under the same terms, next, `CC1(C)Cc2c(sc(NC(=O)c3ccc(NC4CCOCC4)cc3)c2C(=O)O)C(C)(C)O1` [#232]: 1380 nM; `CC1(C)Cc2c(sc(NC(=O)c3ccc(NCC4CCOCC4)cc3)c2C(=O)O)C(C)(C)O1` [#233]: 220 nM. As for `COCCNc1ccc(C(=O)Nc2sc3c(c2C(=O)O)CC(C)(C)OC3(C)C)cc1` [#234], under setting [1], half-maximal inhibition (IC50) required 980 nM. `CC(C)(C)C1CCc2c(sc(NC(=O)c3ccc(F)cc3)c2C(=O)O)C1` (stereo not shown) [#236] came in with an IC50 of 131 nM. In other words, the sub-micromolar range.

For the molecule `CC(C)(C)C1CCc2c(sc(NC(=O)c3ccc(F)cc3)c2C(=O)O)C1` (stereo not shown) [#237], the IC50 worked out at 211 nM. The same measure, in the same setting: next, `CC(C)(C)C1CCc2c(sc(NC(=O)c3ccccc3F)c2C(=O)O)C1` (stereo not shown) [#238]: 310 nM; `Cc1ccccc1C(=O)Nc1sc2c(c1C(=O)O)CCC(C(C)(C)C)C2` (stereo not shown) [#239]: 548 nM.
